From patent US8232409B2, “Heterocyclic benzimidazoles as TRPM8 modulators” (Janssen Pharmaceutica N.V., priority 2008, dated 2012)
Counter-ions that a name gives are not always drawn.

Target: T1, canine TRPM8 (Canis lupus familiaris, UniProt Q1A7N1)
T1 construct: expressed in transfected cells
Test: In vitro canine TRPM8 functional assay (icilin-induced intracellular Ca2+, FLIPR/FDSS);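 further: intracellular Ca2+ tracked with a Ca2+-sensitive fluorescent dye, compound applied 5 min before icilin was added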
Type: cell-based
Conditions: HEK293 cells stably expressing canine TRPM8; for inhibition at 0.2 µM: 0.200 μM compound, icilin challenge (~80% maximal response), read-out: % Inh. @ 0.200 μM; for IC50: icilin challenge, eight-point dose-response

T1 sequence (Q1A7N1 1-1104): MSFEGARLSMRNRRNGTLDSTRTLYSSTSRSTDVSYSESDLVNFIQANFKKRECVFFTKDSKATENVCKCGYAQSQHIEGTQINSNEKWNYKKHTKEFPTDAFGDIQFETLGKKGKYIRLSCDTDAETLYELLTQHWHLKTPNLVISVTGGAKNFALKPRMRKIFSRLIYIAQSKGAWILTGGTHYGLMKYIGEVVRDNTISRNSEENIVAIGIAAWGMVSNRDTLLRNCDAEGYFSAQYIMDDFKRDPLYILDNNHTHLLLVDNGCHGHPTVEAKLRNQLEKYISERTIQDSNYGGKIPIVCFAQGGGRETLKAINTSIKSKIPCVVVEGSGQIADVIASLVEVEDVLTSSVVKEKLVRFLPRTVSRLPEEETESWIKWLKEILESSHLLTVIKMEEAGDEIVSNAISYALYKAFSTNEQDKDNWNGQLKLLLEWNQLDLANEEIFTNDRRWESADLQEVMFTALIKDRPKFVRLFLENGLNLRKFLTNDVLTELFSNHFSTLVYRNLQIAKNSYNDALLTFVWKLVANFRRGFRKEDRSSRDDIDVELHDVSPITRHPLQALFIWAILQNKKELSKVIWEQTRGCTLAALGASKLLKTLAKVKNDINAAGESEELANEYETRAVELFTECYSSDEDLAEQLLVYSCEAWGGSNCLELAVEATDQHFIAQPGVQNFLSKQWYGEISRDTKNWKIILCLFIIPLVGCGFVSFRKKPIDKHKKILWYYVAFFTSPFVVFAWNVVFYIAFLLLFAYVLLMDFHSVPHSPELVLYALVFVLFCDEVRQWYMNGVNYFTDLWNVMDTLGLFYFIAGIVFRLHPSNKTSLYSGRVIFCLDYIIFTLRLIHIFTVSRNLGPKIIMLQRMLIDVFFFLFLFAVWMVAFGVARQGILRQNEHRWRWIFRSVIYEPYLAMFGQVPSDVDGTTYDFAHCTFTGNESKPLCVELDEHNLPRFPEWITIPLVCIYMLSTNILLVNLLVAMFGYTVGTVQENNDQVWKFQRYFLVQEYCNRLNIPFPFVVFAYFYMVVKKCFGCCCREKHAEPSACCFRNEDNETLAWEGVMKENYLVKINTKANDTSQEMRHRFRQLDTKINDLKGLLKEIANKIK

| Structure (SMILES) | inhibition at 0.2 µM [%] | IC50 [nM] |
| --- | --- | --- |
| CC(C)(O)CCc1cc(-c2ccccc2C(F)(F)F)cc2nc(C3=NOC4(CCCCC4)C3)[nH]c12 [Cpd 43, 2-Methyl-4-[2-(1-oxa-2-aza-spiro[4.5]dec-2-en-3-yl)-6-(2-trifluoromethylphenyl)-3H-benzimidazol-4-yl]-butan-2-ol] | 99 | 1.7 |
| Fc1cccc(F)c1-c1cc(Cl)c2[nH]c(C3=NOC4(CCCCC4)C3)nc2c1 [Cpd 44, 3-[7-Chloro-5-(2,6-difluorophenyl)-1H-benzimidazol-2-yl]-1-oxa-2-aza-spiro[4.5]dec-2-ene methanesulfonate] | 100 | 2.1 |
| Clc1ccccc1-c1ccc2[nH]c(C3=NOC4(CCCCC4)C3)nc2c1 [Cpd 45, 3-[5-(2-Chlorophenyl)-1H-benzimidazol-2-yl]-1-oxa-2-aza-spiro[4.5]dec-2-ene hydrochloride] | 97 | – |
| Cc1cc(-c2ccccc2C(F)(F)F)cc2nc(C3=NOC4(CCCCC4)C3)[nH]c12 [Cpd 46, 3-[7-Methyl-5-(2-trifluoromethylphenyl)-1H-benzimidazol-2-yl]-1-oxa-2-aza-spiro[4.5]dec-2-ene hydrochloride] | 97 | 1.8 |
| Cc1cc(-c2ccccc2F)cc2nc(C3=NOC4(CCCCC4)C3)[nH]c12 [Cpd 47, 3-[7-Methyl-5-(2-fluorophenyl)-1H-benzimidazol-2-yl]-1-oxa-2-aza-spiro[4.5]dec-2-ene hydrochloride] | 97 | 6.9 |
| Cc1cc(-c2c(F)cccc2F)cc2nc(C3=NOC4(CCCCC4)C3)[nH]c12 [Cpd 48, 3-[7-Methyl-5-(2,6-difluorophenyl)-1H-benzimidazol-2-yl]-1-oxa-2-aza-spiro[4.5]dec-2-ene hydrochloride] | 97 | 3.9 |
| Fc1ccccc1-c1cc(Cl)c2[nH]c(C3=NOC4(CCCCC4)C3)nc2c1 [Cpd 49, 3-[7-Chloro-5-(2-fluorophenyl)-1H-benzimidazol-2-yl]-1-oxa-2-aza-spiro[4.5]dec-2-ene methanesulfonate] | 101 | 6.1 |
| FC(F)(F)Oc1ccccc1-c1cc(Cl)c2[nH]c(C3=NOC4(CCCCC4)C3)nc2c1 [Cpd 50, 3-[7-Chloro-5-(2-trifluoromethoxyphenyl)-1H-benzimidazol-2-yl]-1-oxa-2-aza-spiro[4.5]dec-2-ene methanesulfonate] | 101 | 1.9 |
| COCCCc1cc(-c2ccccc2C(F)(F)F)cc2nc(C3=NOC4(CCCCC4)C3)[nH]c12 [Cpd 52, 3-[7-(3-Methoxy-propyl)-5-(2-trifluoromethylphenyl)-1H-benzimidazol-2-yl]-1-oxa-2-aza-spiro[4.5]dec-2-ene hydrochloride] | 97 | 1 |
| Cc1c(-c2ccccc2C(F)(F)F)cc(C)c2[nH]c(C3=NOC4(CCCCC4)C3)nc12 [Cpd 54, 3-[4,7-Dimethyl-5-(2-trifluoromethylphenyl)-1H-benzimidazol-2-yl]-1-oxa-2-aza-spiro[4.5]dec-2-ene hydrochloride] | 97 | 5.8 |
| Cc1c(-c2ccccc2C(F)(F)F)cc(Cl)c2[nH]c(C3=NOC4(CCCCC4)C3)nc12 [Cpd 55, 3-[7-Chloro-4-methyl-5-(2-trifluoromethylphenyl)-1H-benzimidazol-2-yl]-1-oxa-2-aza-spiro[4.5]dec-2-ene hydrochloride] | 97 | 4.7 |
| FC(F)(F)c1ccccc1-c1ccc2[nH]c(C3=NOC4(CCCCC4)C3)nc2n1 [Cpd 56, 2-(1-Oxa-2-aza-spiro[4.5]dec-2-en-3-yl)-5-(2-trifluoromethyl-phenyl)-1H-imidazo[4,5-b]pyridine hydrochloride] | 101 | 4.6 |
| FC(F)(F)c1ccccc1-c1cc2nc(C3=NOC4(CCCCC4)C3)[nH]c2cn1 [Cpd 57, 2-(1-Oxa-2-aza-spiro[4.5]dec-2-en-3-yl)-6-(2-trifluoromethyl-phenyl)-3H-imidazo[4,5-c]pyridine hydrochloride] | 102 | 2.7 |
